Reference: paper PMC5478869, “New Hydroxycinnamic Acid Esters as Novel 5-Lipoxygenase Inhibitors That Affect Leukotriene Biosynthesis” (Mediators of Inflammation, 2017)
Entries after “also recorded” stand apart in the source; their conditions may differ.

Legend:
[1] = tested on: arachidonic acid release; experiment: Arachidonic acid release from thapsigargin-stimulated PMNL (GC-MS); assay type: cell-based, human; conditions: 1 μM compound, 1 μM thapsigargin 5 min, vs control (0.5% DMSO)
Description: Quantification of arachidonic acid release from cellular membranes was performed as previously described. Briefly, freshly isolated PMNL (10^7 cells/ml, in HBSS containing 1.6 mM CaCl2 and 0.1% BSA) were incubated with adenosine deaminase (0.3 U/ml) and test compounds for 5 min at 37°C. Stimulation was initiated with the addition of 1 μM thapsigargin, followed by incubation at 37°C for 5 min. The reactions were stopped with the addition of two volumes of cold MeOH and 300 ng of arachidonic acid-d8 (Cayman Chemicals) as internal standard. The samples were stored at −20°C overnight and then centrifuged the next day at 1000 g for 10 min. The supernatants were diluted with four volumes of acidified water (0.1%) then processed on an octadecyl (C18) column. Samples were eluted with the addition of 3 ml of MeOH and dried under nitrogen. Pentafluorobenzylesters were prepared with the addition 50 μl N,N-diisopropylethylamine (20% in acetonitrile) and 50 μl of […] (20% in acetonitrile). Samples were heated for 40 min at 40°C, then dried under nitrogen and resuspended in 100 μl of hexane. Samples were quantified by negative ion chemical ionization gas chromatography/mass spectrometry using TraceGC ultra column (Thermo) and a Polaris Q mass spectrometer (Thermo).
Figure 4 The impact of test compounds on the liberation of arachidonic acid in stimulated PMNL. Human PMNL were incubated with test compounds (1 μM) or their diluent (control, DMSO 0.5%) for 5 min. Stimulation was then initiated with the addition of 1 μM thapsigargin, followed by an incubation at 37°C for 5 min. The reactions were stopped with the addition of two volumes of cold MeOH and 300 ng of arachidonic acid-d8, then samples were stored overnight at −20°C. Free arachidonic acid was first extracted on octadecyl columns, then pentafluorobenzylesters of arachidonic acid were prepared and samples were measured on GC-MS. Spontaneous release of AA was also measured in absence of thapsigargin (nonactivated, NA). ^∗Different from control as determined by one-way ANOVA with Dunnett's multiple comparison test (p < 0.05). Data are expressed as means ± SEM of at least 3 independent experiments.

[2] = tested on: PMNL; experiment: Annexin V labelling of PMNL (early apoptosis); assay type: cell-based, human; conditions: 20 min incubation at 37°C
Text: A positive control with 10% EtOH is shown to validate the assay.

[3] = target: T1, 5-LO (Homo sapiens, UniProt P09917); experiment: Biosynthesis of 5-LO products in HEK293 cells expressing 5-LO and FLAP (A23187 + arachidonic acid); assay type: cell-based; parameters: expressed in transfected cells; host or cells: HEK293; conditions: 1 μM compound, 10 μM A23187 + 10 μM arachidonic acid, 15 min
T1 sequence (P09917 1-674): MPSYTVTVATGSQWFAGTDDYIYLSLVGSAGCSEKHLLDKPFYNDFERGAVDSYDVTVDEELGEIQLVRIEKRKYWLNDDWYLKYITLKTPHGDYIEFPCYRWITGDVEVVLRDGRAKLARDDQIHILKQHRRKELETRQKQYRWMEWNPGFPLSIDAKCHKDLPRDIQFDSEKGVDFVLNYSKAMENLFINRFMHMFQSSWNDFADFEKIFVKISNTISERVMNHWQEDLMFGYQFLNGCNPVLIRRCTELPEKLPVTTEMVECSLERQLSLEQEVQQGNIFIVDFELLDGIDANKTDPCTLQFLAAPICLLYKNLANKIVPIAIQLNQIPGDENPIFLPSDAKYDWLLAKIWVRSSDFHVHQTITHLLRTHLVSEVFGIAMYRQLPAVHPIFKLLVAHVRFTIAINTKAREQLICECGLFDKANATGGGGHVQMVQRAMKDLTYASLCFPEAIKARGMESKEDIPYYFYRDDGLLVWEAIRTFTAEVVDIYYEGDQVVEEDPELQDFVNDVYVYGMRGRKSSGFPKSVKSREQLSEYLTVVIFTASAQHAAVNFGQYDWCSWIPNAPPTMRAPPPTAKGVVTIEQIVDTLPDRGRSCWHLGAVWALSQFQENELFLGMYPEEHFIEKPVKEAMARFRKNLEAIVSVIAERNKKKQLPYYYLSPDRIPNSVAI
Description: HEK293 cells expressing both 5-LO and the 5-lipoxygenase activating protein (FLAP) were generated as previously reported. For cell stimulation of 5-LO products, transfected HEK293 cells were collected following trypsinization and washed and the cell pellet was resuspended in Hank's balanced salt solution (HBSS, Lonza) containing 1.6 mM CaCl2 at a concentration of 5 × 10^5 cells/ml. Cells were preincubated with each compound at the indicated concentration for 5 min at 37°C. Cells were then stimulated for 15 minutes at 37°C with the addition of 10 μM calcium ionophore A23187 (Sigma-Aldrich) and 10 μM arachidonic acid (Cayman Chemical). Stimulations were stopped by adding 0.5 volume of cold MeOH:MeCN (1 : 1) containing 100 ng/ml of 19-OH prostaglandin B2 (PGB2) as internal standard. Samples were then processed and 5-LO products were analyzed by reversed-phase high-performance liquid chromatography (RP-HPLC) as described previously.
To evaluate CAPE analogues as potential inhibitors of the biosynthesis of 5-LO products, a first series of experiments was performed in HEK293 cells expressing both 5-LO and FLAP as previously described. HEK293 cells were first preincubated with the test compounds (1 μM), then stimulated in the presence of arachidonic acid and calcium ionophore A23187 to induce the biosynthesis of 5-LO products (Figure 2(a)). […] Based on these criteria, compounds 9, 13, 14, 15, 16, and 19 were selected for subsequent analyses.
Figure 2 Effect of the test compounds on the biosynthesis of 5-LO products in transfected HEK293 cells (a) and thapsigargin-stimulated PMNL (b). (a) HEK293 cells expressing both 5-LO and FLAP were incubated in presence of the indicated compounds (1 μM) or their diluent (control, 0.5% DMSO) for 5 min, then biosynthesis of 5-LO products was initiated with the addition of 10 μM calcium ionophore A23187 and 10 μM arachidonic acid for 15 min. After stimulation, reactions were stopped and samples were processed for analysis of 5-LO products by RP-HPLC. Total 5-LO products measured represent the sum of LTB4, its trans isomers, and 5-hydroxyeicosatetraenoic acid. (b) Freshly isolated human PMNL were incubated in presence of test compounds (or their diluent control, DMSO 0.5%) at the indicated concentrations for 5 min. Biosynthesis of the 5-LO products was initiated with the addition of 1 μM of thapsigargin, followed by a 15 min incubation period at 37°C. The stimulation was then stopped and samples were processed for RP-HPLC analysis and total 5-LO products quantification. Total 5-LO products measured represent the sum of LTB4, its trans isomers, 20-COOH- and 20-OH-LTB4 and 5-hydroxyeicosatetraenoic acid. Data are expressed as means ± SEM of at least 3 independent experiments. ^∗Different from control, as determined by one-way ANOVA with Dunnett's multiple comparison test (p < 0.05).

[4] = tested on: arachidonic acid release; conditions: cited from earlier work

SMILES | Inhibition of cellular arachidonic acid release in stimulated PMNL [1] | Induction of early apoptosis of PMNL (annexin V labelling) [2] | Inhibition of biosynthesis of 5-LO products in transfected HEK293 cells [3] | Inhibition of liberation of cellular arachidonic acid (previously shown) [4]
O=C(/C=C/c1ccc(O)c(O)c1)OCCCc1ccccc1 [Compound 13] | significantly inhibited cellular arachidonic acid release | did not induce early apoptosis of PMNL | showed similar or better inhibitory activity than the reference compound CAPE (2), or decreased the biosynthesis of 5-LO products by more than 50% | –
Cc1ccc(CCOC(=O)/C=C/c2ccc(O)c(O)c2)cc1 [Compound 15] | failed to significantly inhibit the release of cellular membrane arachidonic acid | – | showed similar or better inhibitory activity than the reference compound CAPE (2), or decreased the biosynthesis of 5-LO products by more than 50% | –
O=C(/C=C/c1ccc(O)c(O)c1)OCCc1ccccc1 [CAPE (2), Caffeic acid phenethyl ester, reference compound] | significantly inhibited cellular arachidonic acid release | – | significantly inhibited the biosynthesis of 5-LO products | previously shown to inhibit the liberation of cellular arachidonic acid
O=C(/C=C/c1ccc(O)c(O)c1)OCCc1ccc(F)cc1 [Compound 14] | failed to significantly inhibit the release of cellular membrane arachidonic acid | – | showed similar or better inhibitory activity than the reference compound CAPE (2), or decreased the biosynthesis of 5-LO products by more than 50% | –
C=C(C)CCOC(=O)/C=C/c1ccc(O)c(O)c1 [Compound 9] | significantly inhibited cellular arachidonic acid release | – | showed similar or better inhibitory activity than the reference compound CAPE (2), or decreased the biosynthesis of 5-LO products by more than 50%; also recorded: best inhibitory activity amongst the compounds from the aliphatic series | –
O=C(/C=C/c1ccc(O)c(O)c1)OCC(c1ccccc1)c1ccccc1 [Compound 19] | significantly inhibited cellular arachidonic acid release | – | showed similar or better inhibitory activity than the reference compound CAPE (2), or decreased the biosynthesis of 5-LO products by more than 50% | –
COc1ccc(CCOC(=O)/C=C/c2ccc(O)c(O)c2)cc1 [Compound 16] | failed to significantly inhibit the release of cellular membrane arachidonic acid | – | showed similar or better inhibitory activity than the reference compound CAPE (2), or decreased the biosynthesis of 5-LO products by more than 50% | –
